Experimental data taken from patent publication US20090186865A1, “Lyophilization Process” (SANDOZ AG, priority 2005, published 2009).

Assay: Stability studies of dissolved products versus temperature
Format: physicochemical
Settings: in aqueous solution

Row | Inflexion point of degradation of dissolved product with temperature | Compound
1 | around 15 °C | CCN1CCN(C(=O)N[C@@H](C(=O)N[C@@H]2C(=O)N3[C@@H]2SC(C)(C)[C@@H]3C(=O)O)c2ccccc2)C(=O)C1=O [Piperacillin]
2 | around 15 °C | C[C@]1(Cn2ccnn2)[C@H](C(=O)O)N2C(=O)C[C@H]2S1(=O)=O [Tazobactam]
